ChEMBL document CHEMBL4190285, “Borapetoside E, a Clerodane Diterpenoid Extracted from Tinospora crispa, Improves Hyperglycemia and Hyperlipidemia in High-Fat-Diet-Induced Type 2 Diabetes Mice” (J Nat Prod, 2017)
Calls of active or inactive are those of the source. The rule behind the calls is not given here.

Tests used:
Mus musculus [1] = assay: Increase in oxygen consumption in HFD-induced obese C57BL/6J mouse at 40 mg/kg, ip administered twice daily for 2.5 days incubated for 12.6 hrs under dark condition followed by redosing on day 3 for 2 times; type: functional, organism-based
Mus musculus [2] = assay: Antihyperglycemic activity in high fat diet-induced obese C57BL/6J mouse assessed as reduction in blood glucose AUC at 40 mg/kg, ip pretreated twice daily for 2.5 days followed by glucose challenge at 2 hrs post last dose by OGTT; type: functional, organism-based
Mus musculus [3] = assay: Antihyperlipidemic activity in high fat diet-induced obese C57BL/6J mouse assessed as serum total cholesterol levels at 20 mg/kg, ip administered twice daily for 2.5 days measured at 2 hrs post last dose (reference value: 4.56 +/- 1.01 mmol/L); type: functional
Mus musculus [4] = assay: Antihyperlipidemic activity in high fat diet-induced obese C57BL/6J mouse assessed as serum triglyceride levels at 40 mg/kg, ip administered twice daily for 2.5 days measured at 2 hrs post last dose (reference value: 1.31 +/- 0.48 mmol/L); type: functional
Mus musculus [5] = assay: Down regulation of SREBP2 mRNA expression in HFD-induced obese C57BL/6J mouse liver at 20 to 40 mg/kg, ip administered twice daily for 2.5 days measured at 2 hrs post last dose by RT-PCR analysis; type: functional, organism-based

COC(=O)C1=CCC[C@H]2[C@](C)(C[C@@H](O[C@@H]3O[C@H](CO)[C@@H](O)[C@H](O)[C@H]3O)c3ccoc3)[C@H]3C[C@H](OC3=O)[C@@]12C
Activity (Mus musculus [1]): Active | Activity (Mus musculus [2]): Active | Activity (Mus musculus [3]): 3.8 mmol/L | Activity (Mus musculus [4]): 0.5 mmol/L | Activity (Mus musculus [5]): Active
